Measurements as given in US8795634B2, “Absorption of therapeutic agents across mucosal membranes or the skin” (Critical Pharmaceuticals Limited, priority 2008, dated 2014).

What was measured:
[1] = Blood glucose after intranasal insulin with Solutol HS15 or its individual components (Example 8); assay type: in vivo, male Sprague Dawley rats; settings: insulin 4 IU/kg intranasal; PEG 600 10% w/v, PEG-HSA 10% w/v, HSA 0.37%, HSA-PEG-HSA 2%
Method: The PEG-HSA and HSA-PEG-HSA were prepared by refluxing polyethylene glycol 600 (PEG 600) and 12-Hydroxystearic acid (HSA) under argon at 120° C. using methane sulfonic acid. All chemicals were purchased from Sigma Aldrich.
Four components were tested in vivo. The following components were dissolved into 0.063M phosphate buffer at the concentrations below: • PEG 600—10% w/v solution • PEG-HSA—10% w/v Solution • HSA—0.37% solution • HSA-PEG-HSA—2% solution
The lower concentrations of HSA and HSA-PEG-HSA were used due to restricted solubility of these materials.
The components dissolved in phosphate buffer were then used to prepare 1 mg/mL insulin solutions and administered intranasally to male Sprague Dawley rats at a rate of 4 IU/kg. All formulations were administered with a Gilson pipette and the tip was inserted approximately 5 mm into the nostril. The animals were housed in limited access rooms where the temperature and humidity were maintained at 21° C.±2° C. and 55%±15% relative respectively; the rooms were lit with artificial light for 12 hours each day. Blood samples were collected from the tail vein of the rats at 0 min (Pre-dose) and 5, 15, 30, 60 and 120 minutes after administration into heparinized tubes, centrifuged and the plasma collected. Blood glucose was measured immediately at each sampling point using a one touch Ultra 2 glucose meter (LifeScan, UK).

[2] = Blood glucose after intranasal insulin in Solutol HS15 solutions (Example 1); assay type: in vivo, Sprague Dawley rats; settings: control insulin solutions, without Solutol HS15
Method: The formulations were then administered intranasally to Sprague Dawley rats at 4 IU/kg and blood samples taken at frequent intervals up to 2 hours after administration. Blood glucose was measured using a standard glucose meter and insulin determined in the plasma by an enzyme linked immunosorbant assay (ELISA).
A group of rats was also administered with insulin dissolved in PBS via subcutaneous injection as comparison to the intranasal doses.

Row | Compound | drop in blood glucose levels [1] | decrease in plasma glucose levels [2] [%]
1 | CCCCCCC(O)CCCCCCCCCCC(=O)O (centres unmarked) [HSA, 12-Hydroxystearic acid] | did not | –
2 | insulin: Insulin (available from Sigma-Aldrich) | – | 15
